Source: patent publication US9650371B2, “Sulfur-containing heterocyclic derivative having beta secretase inhibitory activity” (Shionogi & Co., Ltd., priority 2008, dated 2017)

Biological target: human ether-a-go-go related gene (hERG) channel (Homo sapiens (Human), UniProt Q12809)
Test: hERG test
Format: cell-based
Conditions: HEK293 cells expressing hERG, whole cell patch clamp, 10 minutes
Description: For the purpose of assessing risk of an electrocardiogram QT interval prolongation, effects on delayed rectifier K+ current (IKr), which plays an important role in the ventricular repolarization process, was studied using HEK293 cells expressing human ether-a-go-go related gene (hERG) channel.
After a cell was retained at a membrane potential of −80 mV by whole cell patch clamp method using an automated patch clamp system (PatchXpress 7000A, Axon Instruments Inc.), IKr induced by depolarization pulse stimulation at +50 mV for 2 seconds and, further, repolarization pulse stimulation at −50 mV for 2 seconds was recorded. […] From the recording IKr, an absolute value of the tail peak current was measured based on the current value at the resting membrane potential using an analysis software (DataXpress ver.1, Molecular Devices Corporation). Further, the % inhibition relative to the tail peak current before application of the test substance was calculated, and compared with the vehicle-applied group (0.1% dimethyl sulfoxide solution) to assess influence of the test substance on IKr.

human ether-a-go-go related gene (hERG) channel, sequence (Q12809 whole entry): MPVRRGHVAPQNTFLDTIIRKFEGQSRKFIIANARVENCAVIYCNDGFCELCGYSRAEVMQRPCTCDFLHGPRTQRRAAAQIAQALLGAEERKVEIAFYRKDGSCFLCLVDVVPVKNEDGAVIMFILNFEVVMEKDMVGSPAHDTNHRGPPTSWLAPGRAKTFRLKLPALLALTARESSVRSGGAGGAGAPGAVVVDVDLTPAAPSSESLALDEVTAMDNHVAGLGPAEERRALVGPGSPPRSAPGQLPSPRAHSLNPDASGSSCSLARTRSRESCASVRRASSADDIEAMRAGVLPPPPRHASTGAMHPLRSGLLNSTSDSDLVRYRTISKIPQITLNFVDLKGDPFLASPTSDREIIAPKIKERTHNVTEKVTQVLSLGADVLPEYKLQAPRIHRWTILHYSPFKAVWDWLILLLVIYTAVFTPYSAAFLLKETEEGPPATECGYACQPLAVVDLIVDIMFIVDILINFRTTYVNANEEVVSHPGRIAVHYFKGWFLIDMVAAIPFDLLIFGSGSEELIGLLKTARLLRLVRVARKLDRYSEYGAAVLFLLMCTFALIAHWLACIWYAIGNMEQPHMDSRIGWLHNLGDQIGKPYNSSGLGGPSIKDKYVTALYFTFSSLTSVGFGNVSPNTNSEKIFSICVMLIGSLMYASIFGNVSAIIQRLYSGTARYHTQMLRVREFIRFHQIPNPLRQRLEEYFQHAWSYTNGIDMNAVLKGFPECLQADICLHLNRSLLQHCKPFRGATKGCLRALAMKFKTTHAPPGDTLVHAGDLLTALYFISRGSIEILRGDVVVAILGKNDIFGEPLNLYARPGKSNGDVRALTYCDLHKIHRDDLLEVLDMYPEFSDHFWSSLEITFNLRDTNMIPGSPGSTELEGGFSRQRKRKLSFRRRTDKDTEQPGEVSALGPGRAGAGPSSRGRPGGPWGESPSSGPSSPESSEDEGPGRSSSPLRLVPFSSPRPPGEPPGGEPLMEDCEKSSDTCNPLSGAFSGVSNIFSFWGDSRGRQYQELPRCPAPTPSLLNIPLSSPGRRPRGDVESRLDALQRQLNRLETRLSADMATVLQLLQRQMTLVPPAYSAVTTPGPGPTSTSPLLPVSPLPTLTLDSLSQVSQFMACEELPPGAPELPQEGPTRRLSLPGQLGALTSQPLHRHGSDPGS

SMILES | % inhibition of tail peak current (IKr) [%]
CNC(=O)c1ccc(-c2ccc(F)c([C@]3(C)C=CSC(N)=N3)c2)cn1 [Compound 92] | 7.9
C=C1C[C@@](C)(c2cc(NC(=O)c3cnc(OC)cn3)cnc2C)N=C(N)S1 [Compound 102] | 2.3
